Source: US11466032B2, “Cytotoxic agents” (FEMTOGENIX LIMITED, priority 2017, dated 2022)

Tested on: linear 32P-end-labelled HexA DNA
Assay: DNA interstrand cross-linking assay (denaturing polyacrylamide gel)
Format: biochemical
Details: overnight incubation at 37° C.
Description: The ability of 26 and 34 to cross-link DNA was determined using an assay involving linear double-stranded HexA. TyrT and MS1 DNA fragments (FIG. 5).
Following denaturation conditions (treatment with formamide and heating at 65° C. for 5 min) the DNA strands were completely separated (see control C2, FIG. 6). The presence of an interstrand cross-link holds the denatured strands in close proximity, and cross-linked adducts therefore run as double-stranded DNA on polyacrylamide gel. Talirine and 34 were tested at >10 different concentrations, and the assay was repeated twice. […] C1 and C2 represent controls where C1 is DNA without formic acid, and C2 is DNA without formic acid, but heated thereby forming single strands. Cross-links are clearly detectable at concentrations as low as 10 nM. Using the same assay, the PBD dimer Talirine was also shown to cross-link DNA down to a concentration of 10 nM (FIG. 7).
The preparation of the DNA fragments (FIG. 5) has been previously described^[4]. Briefly, the sequence which had been cloned into the BamHI site of pUC18 was obtained by cutting with HindIII and EcoRI. Radiolabelled DNA fragments were prepared by filling in the 3′-end of the HindIII site with [α-^32P]dATP using Klenow DNA polymerase (exo-).
The radiolabelled DNA fragment was separated from the remainder of the plasmid DNA on a 6% non-denaturing polyacrylamide gel. […]

Structure (SMILES): CNS(=O)(=O)c1ccc(C2=CCN3C(=O)c4cc(OC)c(OCc5cccc(COc6cc7c(cc6OC)C(=O)N6CC=C(c8ccc(S(=O)(=O)NC)cc8)C[C@H]6C=N7)n5)cc4N=C[C@@H]3C2)cc1 [Compound 34, 4,4′-((6aS,6a′S)-((Pyridine-2,6-diylbis(methylene))bis(oxy))bis(2-methoxy-12-oxo-6a,7,10,12-tetrahydrobenzo[e]pyrido[1,2-α][1,4]diazepine-3,8-diyl))bis(N-methylbenzenesulfonamide)]
- lowest concentration at which DNA interstrand cross-links are detectable: 10 nM
